Laboratory results published in patent US10189785B2, “Heterocyclic compound” (TAKEDA PHARMACEUTICAL COMPANY LIMITED, priority 2015, dated 2019).

Each compound was assayed against T1, SPT (SPT2-expressing membrane fraction: human SPT1, human SPT2 and human ssSPTa) (Homo sapiens, UniProt O15269+O15270) (assay: SPT enzyme inhibition test (Test Example 1)). Conditions: read-out: Rate of inhibition (%) at 1 μM.
T1 construct: Full-length human SPT1, human SPT2 and human ssSPTa used; made in house; host or cells: FreeStyle 293 cells (pcDNA3.1 vectors, cotransfection); crude membrane fraction used
T1 sequence (O15269 1-473): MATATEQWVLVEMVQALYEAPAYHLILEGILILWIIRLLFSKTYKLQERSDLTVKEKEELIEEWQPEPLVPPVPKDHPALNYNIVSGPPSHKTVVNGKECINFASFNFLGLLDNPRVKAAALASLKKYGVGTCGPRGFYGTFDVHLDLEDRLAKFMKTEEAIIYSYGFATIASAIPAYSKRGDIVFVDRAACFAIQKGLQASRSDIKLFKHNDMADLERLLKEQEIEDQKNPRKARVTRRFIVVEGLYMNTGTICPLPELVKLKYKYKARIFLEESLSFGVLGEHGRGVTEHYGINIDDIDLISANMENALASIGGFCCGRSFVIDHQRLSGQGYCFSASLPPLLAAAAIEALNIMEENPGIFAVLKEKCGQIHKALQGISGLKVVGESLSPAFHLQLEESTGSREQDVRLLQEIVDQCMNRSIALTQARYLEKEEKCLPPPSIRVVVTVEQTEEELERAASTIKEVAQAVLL
T1 sequence (O15270 1-562): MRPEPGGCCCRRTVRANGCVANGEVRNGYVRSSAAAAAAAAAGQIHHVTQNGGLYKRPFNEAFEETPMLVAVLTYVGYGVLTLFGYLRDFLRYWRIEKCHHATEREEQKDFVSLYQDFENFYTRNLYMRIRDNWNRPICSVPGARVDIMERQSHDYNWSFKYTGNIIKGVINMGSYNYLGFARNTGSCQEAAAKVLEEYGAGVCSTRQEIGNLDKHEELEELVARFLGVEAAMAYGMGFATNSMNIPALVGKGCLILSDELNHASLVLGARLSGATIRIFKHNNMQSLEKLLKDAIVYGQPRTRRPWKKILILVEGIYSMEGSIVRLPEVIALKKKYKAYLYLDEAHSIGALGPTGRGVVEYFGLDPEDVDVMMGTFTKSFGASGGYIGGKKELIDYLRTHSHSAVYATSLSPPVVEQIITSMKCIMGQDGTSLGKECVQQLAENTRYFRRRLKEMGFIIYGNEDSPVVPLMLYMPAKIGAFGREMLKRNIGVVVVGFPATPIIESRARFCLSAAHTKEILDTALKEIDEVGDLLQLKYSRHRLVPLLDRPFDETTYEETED
T1 sequence (Q969W0 1-71 partner): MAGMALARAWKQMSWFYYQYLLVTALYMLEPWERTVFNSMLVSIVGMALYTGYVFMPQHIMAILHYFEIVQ
Assay type: biochemical
Procedure: After culture for 3 days, the cells were recovered and frozen at −80° C. to obtain expressing cells. The frozen cells were suspended in a 50 mM Hepes buffer (pH 7.5) containing 250 mM sucrose, 5 mM ethylenediaminetetraacetic acid (EDTA), 5 mM dithiothreitol (DTT) and Complete, EDTA-free (Roche Applied Science, Penzberg, Upper Bavaria, Germany). The cells were disrupted (on ice, 20,000 rpm, 20 sec×2) using POLYTORON (Central Scientific Commerce, Inc.). After centrifugation at 2000 rpm (850×g) for 10 minutes, the supernatant was recovered. Subsequently, the supernatant was centrifuged at 40,000 rpm (186,010×g) for 60 minutes, and the supernatant was discarded. The pellets were suspended in a 50 mM Hepes buffer (pH 7.5) containing 5 mM EDTA, 5 mM DTT and Complete, EDTA-free, passed through a 40-μm cell strainer and stored at −80° C. The resultant was used as a SPT2-expressing membrane fraction. The protein concentration was determined using CBB Protein Assay with bovine serum albumin used as standards.
5 μL of each test compound was mixed with 10 μL of the 100 μg/mL SPT2-expressing membrane fraction using an assay buffer (100 mM Hepes (pH 8.0) containing 2.5 mM EDTA, 5 mM DTT and 0.01% fatty acid-free bovine serum albumin), and the mixture was left standing at room temperature for 60 minutes. Subsequently, 5 μL of a substrate solution containing 2 mM L-serine and 20 μM palmitoyl CoA was added thereto, and an enzyme reaction was carried out in a 384-well plate using 20 μL in total of the reaction system. After reaction at room temperature for 15 minutes, the reaction was terminated by the addition of 20 μL of a 2% aqueous formic acid solution. Subsequently, 40 μL of acetonitrile containing 600 nM C17-sphinganine (Avanti Polar Lipids, Inc., Alabaster, Ala., U.S.) was added thereto as an internal standard. The reaction sample was subjected to on-line solid-layer extraction using RapidFire 300 (Agilent Technologies Inc., Santa Clara, Calif., U.S.). […] Mass chromatograms were obtained using Analyst software (version 1.5.0, AB SCIEX). Their mass chromatogram areas were respectively calculated, and the rate of inhibition (%) by the test compound was calculated using an area ratio (the value of the reaction product was divided by the value of the internal standard).

inhibition at 1 µM [%]	Structure (SMILES)
93	COc1ccc(C(=O)N2CCC(NC(=O)c3ccccc3Cl)c3c(C)nn(C)c32)cc1OC (stereo not shown) [Example 172A, 2-Chloro-N-(7-(3,4-dimethoxybenzoyl)-1,3-dimethyl-4,5,6,7-tetrahydro-1H-pyrazolo[3,4-b]pyridin-4-yl)benzamide]
82	COc1cc(C(=O)N2CC[C@@H](NC(=O)c3ccccc3OC(F)(F)F)[C@H](n3cccn3)C2)cnc1OC (relative stereo) [Example 276B, N-(trans-1-((5,6-dimethoxypyridin-3-yl)carbonyl)-3-(1H-pyrazol-1-yl)piperidin-4-yl)-2-(trifluoromethoxy)benzamide]
95	COc1ccc(C(=O)N2CC[C@@H](NC(=O)c3ccccc3OC(F)(F)F)[C@@H](N3CCCCC3)C2)cc1OC (relative stereo) [Example 55B, N-(cis-1′-(3,4-Dimethoxybenzoyl)-1,3′-bipiperidin-4′-yl)-2-(trifluoromethoxy)benzamide]
82	COc1ccc(C(=O)N2CCC(NC(=O)c3sccc3Cl)c3c2cnn3C)cc1OC (stereo not shown) [Example 64A, 3-chloro-N-(4-(3,4-dimethoxybenzoyl)-1-methyl-4,5,6,7-tetrahydro-1H-pyrazolo[4,3-b]pyridin-7-yl)thiophene-2-carboxamide]
94	COc1ccc(C(=O)N2CCC(NC(=O)c3cnccc3C(F)(F)F)c3c2cnn3C)cc1OC (stereo not shown) [Example 91A, N-(4-(3,4-dimethoxybenzoyl)-1-methyl-4,5,6,7-tetrahydro-1H-pyrazolo[4,3-b]pyridin-7-yl)-4-(trifluoromethyl)nicotinamide]
97	COc1cc(C(=O)N2CC[C@@H](NC(=O)c3ccccc3OC(F)(F)F)[C@H](N3CCCCC3)C2)cnc1OC (relative stereo) [Example 253B, N-(trans-1′-((5,6-Dimethoxypyridin-3-yl)carbonyl)-1,3′-bipiperidin-4′-yl)-2-(trifluoromethoxy)benzamide]
84	COc1ccc(C(=O)N2CCC(NC(=O)c3ccccc3Cl)c3noc(C)c32)cc1OC (stereo not shown) [Example 17A, 2-Chloro-N-[4-(3,4-dimethoxybenzoyl)-3-methyl-4,5,6,7-tetrahydro[1,2]oxazolo[4,3-b]pyridin-7-yl]benzamide]
102	COc1ccc(C(=O)N2CCC(NC(=O)c3ccccc3Cl)c3ccc(Cl)nc32)cc1OC (stereo not shown) [Example 217A, 2-Chloro-N-(7-chloro-1-(3,4-dimethoxybenzoyl)-1,2,3,4-tetrahydro-1,8-naphthyridin-4-yl)benzamide]
94	COc1cc(C(=O)N2CC[C@@H](NC(=O)c3ncccc3C(F)(F)F)[C@@H](c3ccccc3)C2)n(C)n1 [Example 72B, N-((3S,4R)-1-((3-methoxy-1-methyl-1H-pyrazol-5-yl)carbonyl)-3-phenylpiperidin-4-yl)-3-(trifluoromethyl)pyridine-2-carboxamide]
89	COc1ccc(C(=O)N2CC[C@@H](NC(=O)c3ccccc3Cl)[C@H](c3sccc3C)C2)cc1OC (relative stereo) [Example 270B, 2-chloro-N-(trans-1-(3,4-dimethoxybenzoyl)-3-(3-methyl-2-thienyl)piperidin-4-yl)benzamide]
95	COc1ccc(C(=O)N2CCC(NC(=O)c3cccnc3C(F)(F)F)c3c2cnn3C)cc1OC (stereo not shown) [Example 103A, N-(4-(3,4-dimethoxybenzoyl)-1-methyl-4,5,6,7-tetrahydro-1H-pyrazolo[4,3-b]pyridin-7-yl)-2-(trifluoromethyl)nicotinamide]
93	COc1ccc(C(=O)N2CCC(NC(=O)c3ccccc3Cl)c3nscc32)cc1OC (stereo not shown) [Example 30A, 2-Chloro-N-[4-(3,4-dimethoxybenzoyl)-4,5,6,7-tetrahydro[1,2]thiazolo[4,3-b]pyridin-7-yl]benzamide]
98	COc1cc(C(=O)N2CC[C@@H](NC(=O)c3ccnn3C)[C@@H](c3ccccc3)C2)cnc1OC [Example 144B, N-((3S,4R)-1-((5,6-dimethoxypyridin-3-yl)carbonyl)-3-phenylpiperidin-4-yl)-1-methyl-1H-pyrazole-5-carboxamide]
91	COc1ccc(C(=O)N2CCC(NC(=O)c3ccccc3Cl)c3nn(C)cc32)cc1OC (stereo not shown) [Example 1A, 2-Chloro-N-(4-(3,4-dimethoxybenzoyl)-2-methyl-4,5,6,7-tetrahydro-2H-pyrazolo[4,3-b]pyridin-7-yl)benzamide]
84	COc1ccc(C(=O)N2CCC(NC(=O)c3ccccc3Cl)c3c(C)nsc32)cc1OC (stereo not shown) [Example 117A, 2-Chloro-N-(7-(3,4-dimethoxybenzoyl)-3-methyl-4,5,6,7-tetrahydro[1,2]thiazolo[5,4-b]pyridin-4-yl)benzamide]

These compounds were tested on lung adenocarcinoma cell line HCC4006 (assay: HCC4006 cell growth inhibition test (Test Example 2)). Conditions: Homo sapiens, 120 h; 1 μM test compound; HCC4006 cells, culture for 5 days, CellTiter-Glo; read-out: Rate of inhibition (%) at 1 μM.
Assay type: cell-based
Procedure: A lung adenocarcinoma cell line HCC4006 (ATCC) was cultured using an RPMI-1640 medium (Wako Pure Chemical Industries, Ltd.) containing 10% fetal bovine serum and penicillin/streptomycin. 250 cells per well were inoculated into 40 μL of a medium in a 384-well culture plate. On the next day, 10 μL of each test compound was added to the cells. After culture for 5 days, the medium was discarded, and 30 μL of CellTiter-Glo Luminescent Cell Viability Assay solution (Promega Corp., Fitchburg, Wis., U.S.) was added to each well. Light emission signals were measured using EnVision (PerkinElmer, Inc., Waltham, Mass., U.S.).
The rate of inhibition (%) by the test compound was calculated according to the following expression: Rate of inhibition (%)=(1−(Count of the test compound−Blank)/(Control−Blank))×100
In the above expression, a count under compound non-addition conditions was indicated as a control, and a count under cell-free conditions was indicated as a blank.

Structure (SMILES)	inhibition at 1 µM [%]
COc1ccc(C(=O)N2CC[C@H](NC(=O)c3ccccc3Cl)c3c2cnn3C(C)C)cc1OC [Example 74A, 2-Chloro-N-((7S)-4-(3,4-dimethoxybenzoyl)-1-isopropyl-4,5,6,7-tetrahydro-1H-pyrazolo[4,3-b]pyridin-7-yl)benzamide]	51
COc1ccc(C(=O)N2CC[C@@H](NC(=O)c3ccccc3Cl)[C@@H](c3ccccc3)C2)cc1OC [Example 2B, 2-chloro-N-((3S,4R)-1-(3,4-dimethoxybenzoyl)-3-phenylpiperidin-4-yl)benzamide]	55
COc1cc(C(=O)N2CCC(NC(=O)c3ccccc3OC(F)(F)F)c3c2cnn3C(C)C)cnc1OC (stereo not shown) [Example 132A, N-(4-((5,6-Dimethoxypyridin-3-yl)carbonyl)-1-isopropyl-4,5,6,7-tetrahydro-1H-pyrazolo[4,3-b]pyridin-7-yl)-2-(trifluoromethoxy)benzamide]	52
COc1ccc(C(=O)N2CC[C@@H](NC(=O)c3ccccc3Cl)[C@H](c3ccccc3)C2)cc1OC [Example 3B, 2-chloro-N-((3R,4R)-1-(3,4-dimethoxybenzoyl)-3-phenylpiperidin-4-yl)benzamide]	44
